In general, IC50 refers to the concentration at which inhibition is half-maximal. Read a low IC50 as higher potency.

We go through 13 compounds from ChEMBL document CHEMBL4819060, “Design, synthesis and assessment of new series of quinazolinone derivatives as EGFR inhibitors along with their cytotoxic evaluation against MCF7 and A549 cancer cell lines” (Bioorg Med Chem Lett, 2021).

One experiment relates to A549. Nature of the experiment: Cytotoxicity against human A549 cells incubated for 2 to 4 hrs by MTT assay. The class given is functional, cell-based.
For experiment [1], the system named is MCF7. Nature of the experiment: cells. The class given is functional, cell-based. The note with it: Homo sapiens.
Description: Cytotoxicity against human MCF7 cells incubated for 2 to 4 hrs by MTT assay
Experiment [2] has as its system MCF7. Nature of the experiment: Induction of apoptosis in human MCF7 cells assessed as early apoptotic cells measured after 24 hrs by Annexin V-FITC/propidium iodide staining based flow cytometry assay (reference value: 0.32%). The class given is functional. For orientation: In flow cytometry, cells or beads pass a laser one at a time.
In experiment [3] the test system is MCF7. Nature of the experiment: Induction of cell cycle arrest in human MCF7 cells assessed as accumulation of cells at Pre-G1 phase at 1.74 uM after 24 hrs by propidium iodide staining-based flow cytometric analysis (reference value: 1.63%). The class given is functional.
The subject of experiment [4] is MCF7. Put plainly: Induction of apoptosis in human MCF7 cells assessed as late apoptotic cells measured after 24 hrs by Annexin V-FITC/propidium iodide staining based flow cytometry assay (reference value: 0.12%). Type of experiment: functional.
In experiment [5] the test system is MCF7. Put plainly: Induction of apoptosis in human MCF7 cells assessed as total apoptotic cells measured after 24 hrs by Annexin V-FITC/propidium iodide staining based flow cytometry assay (reference value: 1.63%). The class given is functional.
The subject of experiment [6] is MCF7. Nature of the experiment: Induction of cell cycle arrest in human MCF7 cells assessed as accumulation of cells at G2/M phase at 1.74 uM after 24 hrs by propidium iodide staining-based flow cytometric analysis (reference value: 10.49%). Type of experiment: functional.
For experiment [7], the system named is MCF7. Nature of the experiment: Induction of apoptosis in human MCF7 cells assessed as necrotic cells measured after 24 hrs by Annexin V-FITC/propidium iodide staining based flow cytometry assay (reference value: 1.19%). The class given is functional.
Another experiment in a line: cells. Type of experiment: ADME, cell-based. The note with it: Homo sapiens, PCS-800-011.
Experiment [8] concerns the target Epidermal growth factor receptor (Homo sapiens, UniProt P00533).
Description: Inhibition of EGFR (unknown origin)
Experiment [9] concerns MCF7. Put plainly: Induction of cell cycle arrest in human MCF7 cells assessed as accumulation of cells at G0/G1 phase at 1.74 uM after 24 hrs by propidium iodide staining-based flow cytometric analysis (reference value: 52.94%). The class given is functional.
Experiment [10] has as its system MCF7. Nature of the experiment: Induction of cell cycle arrest in human MCF7 cells assessed as accumulation of cells at S phase at 1.74 uM after 24 hrs by propidium iodide staining-based flow cytometric analysis (reference value: 36.57%). The class given is functional.
Experiment [11] concerns MCF7. Nature of the experiment: Induction of cell cycle arrest in human MCF7 cells assessed as accumulation of cells at G2/M phase at 4.05 uM after 24 hrs by propidium iodide staining-based flow cytometric analysis (reference value: 10.49%). Type of experiment: functional.
The test system of experiment [12] is MCF7. Put plainly: Induction of cell cycle arrest in human MCF7 cells assessed as accumulation of cells at Pre-G1 phase at 4.05 uM after 24 hrs by propidium iodide staining-based flow cytometric analysis (reference value: 1.63%). The class given is functional.
Experiment [13] relates to MCF7. Nature of the experiment: Induction of cell cycle arrest in human MCF7 cells assessed as accumulation of cells at S phase at 4.05 uM after 24 hrs by propidium iodide staining-based flow cytometric analysis (reference value: 36.57%). The class given is functional.
Experiment [14] deals with MCF7. Nature of the experiment: Induction of cell cycle arrest in human MCF7 cells assessed as accumulation of cells at G0/G1 phase at 4.05 uM after 24 hrs by propidium iodide staining-based flow cytometric analysis (reference value: 52.94%). Type of experiment: functional.

Sequence of Epidermal growth factor receptor (P00533 whole entry): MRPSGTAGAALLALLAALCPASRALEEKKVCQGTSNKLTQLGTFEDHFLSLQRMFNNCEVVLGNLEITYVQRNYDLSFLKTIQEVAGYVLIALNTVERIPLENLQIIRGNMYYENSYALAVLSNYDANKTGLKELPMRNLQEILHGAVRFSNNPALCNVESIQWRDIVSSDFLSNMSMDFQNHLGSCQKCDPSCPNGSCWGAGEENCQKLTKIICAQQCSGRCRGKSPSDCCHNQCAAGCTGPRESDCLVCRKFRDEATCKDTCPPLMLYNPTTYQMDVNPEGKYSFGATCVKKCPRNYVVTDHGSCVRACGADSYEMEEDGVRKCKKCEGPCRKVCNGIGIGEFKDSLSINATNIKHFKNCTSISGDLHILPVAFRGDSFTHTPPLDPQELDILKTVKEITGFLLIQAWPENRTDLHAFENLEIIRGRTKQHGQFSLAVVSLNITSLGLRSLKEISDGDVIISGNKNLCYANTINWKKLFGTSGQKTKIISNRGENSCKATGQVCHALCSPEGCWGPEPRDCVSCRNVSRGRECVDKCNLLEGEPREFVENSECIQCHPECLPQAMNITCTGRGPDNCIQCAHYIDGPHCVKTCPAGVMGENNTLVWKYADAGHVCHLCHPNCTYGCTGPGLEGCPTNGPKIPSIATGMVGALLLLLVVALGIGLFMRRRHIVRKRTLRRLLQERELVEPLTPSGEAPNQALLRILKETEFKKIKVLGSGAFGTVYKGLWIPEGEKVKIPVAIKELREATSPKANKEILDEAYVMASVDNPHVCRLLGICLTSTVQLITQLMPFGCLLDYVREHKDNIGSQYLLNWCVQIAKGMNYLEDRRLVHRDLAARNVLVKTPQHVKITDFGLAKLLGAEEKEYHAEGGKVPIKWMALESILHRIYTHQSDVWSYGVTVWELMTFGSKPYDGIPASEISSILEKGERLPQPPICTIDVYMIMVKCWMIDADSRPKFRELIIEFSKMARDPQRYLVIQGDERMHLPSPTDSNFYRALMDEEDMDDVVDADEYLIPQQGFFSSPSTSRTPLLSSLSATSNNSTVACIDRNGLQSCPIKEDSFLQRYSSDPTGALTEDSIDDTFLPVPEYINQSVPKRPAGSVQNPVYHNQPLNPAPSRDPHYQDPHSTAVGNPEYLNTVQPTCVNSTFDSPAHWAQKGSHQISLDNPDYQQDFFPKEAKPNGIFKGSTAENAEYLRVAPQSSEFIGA

As to `O=C(CNc1ccc(Cl)cc1Cl)Nn1c(-c2ccccc2)nc2ccccc2c1=O`, the IC50 with A549 is 187 µM; in the experiment on MCF7 [1], 4.41 µM.

On to `O=C(CNc1ccc(Cl)cc1)Nn1c(-c2ccccc2)nc2ccccc2c1=O`, for which the Activity in the experiment with MCF7 [2] was determined as 2.56%; in the experiment on MCF7 [3] it was 37.24%; in the experiment with MCF7 [4], 23.65%; in the experiment with MCF7 [5] it was 37.24%; in the experiment on MCF7 [6], 36.21%; with MCF7 [7] it was 11.03%. The values for the Activity in the experiment with MCF7 [9] and in the experiment with MCF7 [10] were 34.32% and 29.47%, respectively. For the same compound, the half-maximal inhibitory concentration (IC50) with A549 was found to be 7.29 µM; in the experiment with MCF7 [1], 1.74 µM; in the experiment “cells”, 51.2 µM; in [8], 81.1 nM.

As to `COc1ccc(/C=C2/SC(Nn3c(-c4ccccc4)nc4ccccc4c3=O)=NC2=O)cc1`, the IC50 in the experiment with A549 was 5.31 µM; in the experiment with MCF7 [1], 3.76 µM; in “cells”, 31.4 µM; in experiment [8], 136 nM.

As for `COc1ccc(/C=C2/SC(Nn3c(-c4ccccc4)nc4ccccc4c3=O)=NC2=O)cc1OC`, the figures for the IC50 with A549 and in the experiment on MCF7 [1] were 44.7 µM and 1 µM, respectively.

In [8], `COc1ccc(-c2coc3cc(OCC(=O)N/C=C\c4ccc(O)cc4)ccc3c2=O)cc1` registered an IC50 of 33.1 nM.

In [8], `CN(C(=O)NCCCl)c1ccc2ncnc(Nc3cccc(Cl)c3)c2c1` gave an IC50 of 81 nM.

In [8], `CN(/N=N\c1ccc2ncnc(Nc3cccc(Cl)c3)c2c1)C(=O)OCCl` had a 50% inhibitory concentration (IC50) of 0.39 nM.

As to `CCc1ccc(NCC(=O)Nn2c(-c3ccccc3)nc3ccccc3c2=O)cc1`, the IC50 in the experiment with A549 stood at 2.1 µM; with MCF7 [1], 2.42 µM; in “cells”, 36.9 µM; in experiment [8], 143 nM.

Consider `O=C(CNc1ccccc1)Nn1c(-c2ccccc2)nc2ccccc2c1=O`, for which the results for the IC50 in the experiment on A549 and in the experiment with MCF7 [1] were 13.3 µM and 15.2 µM, respectively.

As to `O=C1N=C(Nn2c(-c3ccccc3)nc3ccccc3c2=O)S/C1=C/c1ccccc1`, the Activity in the experiment with MCF7 [11] stood at 29.17%; in the experiment on MCF7 [2], 4.95%; in the experiment on MCF7 [4] it was 12.16%; with MCF7 [12], 26.38%; in the experiment with MCF7 [5], 26.38%; in the experiment with MCF7 [13] it was 27.88%. For the same compound, the Activity in the experiment with MCF7 [14] is recorded as 42.95%; with MCF7 [7] it was 9.27%. Moreover, the IC50 was 0.72 µM in the experiment on A549, 4.05 µM in the experiment on MCF7 [1], 44.3 µM in the experiment “cells” and 65.6 nM in [8].

Regarding `O=C(CNc1ccc(Br)cc1)Nn1c(-c2ccccc2)nc2ccccc2c1=O`, the IC50 was found to be 25 µM in the experiment on A549 and 15.1 µM in the experiment with MCF7 [1].

Turning to `O=C1N=C(Nn2c(-c3ccccc3)nc3ccccc3c2=O)S/C1=C/c1ccc(Br)cc1`, the IC50 in the experiment with A549 turned out to be 21.3 µM; in the experiment on MCF7 [1], 2.3 µM.

Regarding `O=C1N=C(Nn2c(-c3ccccc3)nc3ccccc3c2=O)S/C1=C/c1ccc(O)cc1O`, the IC50 with A549 stood at 3.22 µM; in the experiment on MCF7 [1], 7.49 µM; in “cells”, 17.3 µM; in experiment [8], 178 nM.
